Target: PAS domain-containing serine/threonine-protein kinase (Homo sapiens, UniProt Q96RG2)
Assay: FRET Assay : Table 3: In the presence of kinase and ATP, the Ulight-peptide is phosphorylated and captured by an anti-phospho-substrate antibody, which brings the Eu chelate donor and Ulight acceptor dyes into close proximity. Upon excitation at 340 nm, the Eu chelate transfers its energy to the Ulight dye, resulting in a fluorescent light emission at 665 nm. Titration of kinase at 1 mM ATP was achieved via the following protocol. After making serial three-fold dilutions of PASK (Invitrogen) in reaction buffer across the plate; 5 μl of kinase dilution and 5 μl substrate/ATP mix were added to the wells of the white Optiplate-384 (PerkinElmer). The contents of the plate were and incubated at RT for 1 h. The reaction was stopped by adding 5 μl of stop solution to each test well followed by mixing and incubation at RT for 10 minutes. 5 μl of detection mix (detection antibody diluted in detection buffer) was added; the contents of the plate were mixed and then incubated in the dark for 1 hour at RT. The signal was recorded at TR-FRET mode (665 nm/615 nm). The results were graphed to calculate the EC50.

PAS domain-containing serine/threonine-protein kinase, sequence (Q96RG2 whole entry, the tested form may be a part): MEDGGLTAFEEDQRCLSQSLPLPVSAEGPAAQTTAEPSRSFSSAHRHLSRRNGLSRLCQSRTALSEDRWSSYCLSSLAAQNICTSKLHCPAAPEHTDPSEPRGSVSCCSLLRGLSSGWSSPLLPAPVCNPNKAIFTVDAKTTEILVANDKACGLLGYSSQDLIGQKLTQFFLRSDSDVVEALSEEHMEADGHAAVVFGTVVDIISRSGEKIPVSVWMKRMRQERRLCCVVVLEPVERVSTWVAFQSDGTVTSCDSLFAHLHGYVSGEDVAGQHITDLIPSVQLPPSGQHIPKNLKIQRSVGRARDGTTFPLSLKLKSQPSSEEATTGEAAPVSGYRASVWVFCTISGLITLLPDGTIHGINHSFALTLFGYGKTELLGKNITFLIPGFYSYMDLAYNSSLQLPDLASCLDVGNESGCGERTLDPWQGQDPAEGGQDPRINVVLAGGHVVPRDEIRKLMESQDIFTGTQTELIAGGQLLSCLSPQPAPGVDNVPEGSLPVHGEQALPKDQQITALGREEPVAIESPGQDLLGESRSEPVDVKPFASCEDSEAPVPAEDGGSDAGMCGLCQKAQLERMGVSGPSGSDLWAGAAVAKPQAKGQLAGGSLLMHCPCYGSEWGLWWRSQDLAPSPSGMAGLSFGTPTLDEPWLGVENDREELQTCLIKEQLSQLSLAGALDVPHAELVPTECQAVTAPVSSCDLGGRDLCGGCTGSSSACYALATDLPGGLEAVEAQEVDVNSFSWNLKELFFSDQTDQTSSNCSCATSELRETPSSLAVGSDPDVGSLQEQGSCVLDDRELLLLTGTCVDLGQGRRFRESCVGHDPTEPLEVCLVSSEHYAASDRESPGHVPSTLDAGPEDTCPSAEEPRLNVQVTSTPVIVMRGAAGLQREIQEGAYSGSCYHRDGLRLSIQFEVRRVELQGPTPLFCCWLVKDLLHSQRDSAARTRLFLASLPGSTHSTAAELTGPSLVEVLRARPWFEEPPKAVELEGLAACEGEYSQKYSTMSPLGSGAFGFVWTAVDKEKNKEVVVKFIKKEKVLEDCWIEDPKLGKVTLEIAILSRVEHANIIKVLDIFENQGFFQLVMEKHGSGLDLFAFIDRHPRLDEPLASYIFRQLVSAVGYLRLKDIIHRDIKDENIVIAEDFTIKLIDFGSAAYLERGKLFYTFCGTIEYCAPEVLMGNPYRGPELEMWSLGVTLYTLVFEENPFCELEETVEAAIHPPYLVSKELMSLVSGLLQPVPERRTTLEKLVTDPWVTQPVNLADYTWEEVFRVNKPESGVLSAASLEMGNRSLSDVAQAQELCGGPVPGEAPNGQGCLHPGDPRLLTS

- IC50: < 10 µM
SMILES: Nc1nn2c(c1-c1ccccn1)CC(c1ccc3c(c1)OC(F)(F)O3)=CC2=O

From ChEMBL document CHEMBL5728342, “Heterocyclic compounds for the inhibition of pask” (2021)
